According to ChEMBL document CHEMBL1201861, “Genomics of Drug Sensitity in Cancer screening data, Wellcome Trust Sanger Institute”:

Legend:
Test in all cases: cells
BT-20 = format: functional, cell-based, Homo sapiens; conditions: Homo sapiens, BT-20;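 further: cell viability assay measuring suppression of growth in human BT-20 cells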
Description: SANGER: Inhibition of human BT-20 cell growth in a cell viability assay.

LN-405 = format: functional, cell-based, Homo sapiens; conditions: Homo sapiens, LN-405
Description: SANGER: Inhibition of human LN-405 cell growth in a cell viability assay.

BB49-HNC = format: functional, cell-based, Homo sapiens; conditions: Homo sapiens, BB49-HNC;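 further: cell viability assay read-out, reported as inhibition of BB49-HNC cell growth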
Description: SANGER: Inhibition of human BB49-HNC cell growth in a cell viability assay.

MSTO-211H = format: functional, cell-based, Homo sapiens; conditions: Homo sapiens, MSTO-211H
Description: SANGER: Inhibition of human MSTO-211H cell growth in a cell viability assay.

KARPAS-45 = format: functional, cell-based; conditions: Homo sapiens;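 further: inhibition of cell line growth, read out through a viability assay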
Description: SANGER: Inhibition of human KARPAS-45 cell growth in a cell viability assay.

8305C = format: functional, cell-based, Homo sapiens; conditions: Homo sapiens, 8305C
Description: SANGER: Inhibition of human 8305C cell growth in a cell viability assay.

NB5 = format: functional, cell-based, Homo sapiens; conditions: Homo sapiens, NB5;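 further: growth inhibition of NB5 cells, read out as cell viability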
Description: SANGER: Inhibition of human NB5 cell growth in a cell viability assay.

G-402 = format: functional, cell-based, Homo sapiens; conditions: Homo sapiens, G-402
Description: SANGER: Inhibition of human G-402 cell growth in a cell viability assay.

RVH-421 = format: functional, cell-based, Homo sapiens; conditions: Homo sapiens, RVH-421
Description: SANGER: Inhibition of human RVH-421 cell growth in a cell viability assay.

SW-620 = format: functional, cell-based, Homo sapiens; conditions: Homo sapiens, SW-620;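 further: growth inhibition of human SW-620 cells, measured by a cell viability assay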
Description: SANGER: Inhibition of human SW620 cell growth in a cell viability assay.

COLO-792 = format: functional, cell-based, Homo sapiens; conditions: Homo sapiens, COLO-792
Description: SANGER: Inhibition of human COLO-792 cell growth in a cell viability assay.

SW 962 = format: functional, cell-based, Homo sapiens; conditions: Homo sapiens, SW 962;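 further: growth inhibition of human SW962 cells, read out by a cell viability assay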
Description: SANGER: Inhibition of human SW962 cell growth in a cell viability assay.

NCI-H2342 = format: functional, cell-based; conditions: Homo sapiens;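 further: growth inhibition of the cancer cell line, determined with a cell viability assay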
Description: SANGER: Inhibition of human NCI-H2342 cell growth in a cell viability assay.

SK-MEL-24 = format: functional, cell-based; conditions: Homo sapiens;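 further: growth inhibition read out by a cell viability assay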
Description: SANGER: Inhibition of human SK-MEL-24 cell growth in a cell viability assay.

SW684 = format: functional, cell-based, Homo sapiens; conditions: Homo sapiens, SW684;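 further: growth inhibition of human SW684 cells, measured by a cell viability assay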
Description: SANGER: Inhibition of human SW684 cell growth in a cell viability assay.

SCC-15 = format: functional, cell-based, Homo sapiens; conditions: Homo sapiens, SCC-15;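 further: growth inhibition of SCC-15 cells, read out with a cell viability assay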
Description: SANGER: Inhibition of human SCC-15 cell growth in a cell viability assay.

SF-126 = format: functional, cell-based, Homo sapiens; conditions: Homo sapiens, SF-126;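 further: growth inhibition of human SF126 cells, read out with a cell viability assay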
Description: SANGER: Inhibition of human SF126 cell growth in a cell viability assay.

ETK-1 = format: functional, cell-based, Homo sapiens; conditions: Homo sapiens, ETK-1;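 further: growth inhibition of human ETK-1 cells, read out with a cell viability assay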
Description: SANGER: Inhibition of human ETK-1 cell growth in a cell viability assay.

MC116 = format: functional, cell-based; conditions: Homo sapiens;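 further: growth inhibition of MC116 cells, read out with a cell viability assay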
Description: SANGER: Inhibition of human MC116 cell growth in a cell viability assay.

NB7 = format: functional, cell-based; conditions: Homo sapiens;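 further: growth inhibition of NB7 cells, read out with a cell viability assay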
Description: SANGER: Inhibition of human NB7 cell growth in a cell viability assay.

HuO-3N1 = format: functional, cell-based, Homo sapiens; conditions: Homo sapiens, HuO-3N1;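 further: cell viability readout used to measure how strongly compounds suppress proliferation of human HuO-3N1 cells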
Description: SANGER: Inhibition of human HuO-3N1 cell growth in a cell viability assay.

NOMO-1 = format: functional, cell-based; conditions: Homo sapiens;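 further: growth inhibition of human NOMO-1 cells measured by a cell viability assay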
Description: SANGER: Inhibition of human NOMO-1 cell growth in a cell viability assay.

CTB-1 = format: functional, cell-based; conditions: Homo sapiens
Description: SANGER: Inhibition of human CTB-1 cell growth in a cell viability assay.

KYSE-410 = format: functional, cell-based, Homo sapiens; conditions: Homo sapiens, KYSE-410;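 further: growth inhibition of KYSE-410 cells, measured through a cell viability readout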
Description: SANGER: Inhibition of human KYSE-410 cell growth in a cell viability assay.

NCI-H1650 = format: functional, cell-based, Homo sapiens; conditions: Homo sapiens, NCI-H1650;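 further: growth inhibition of human NCI-H1650 cells measured by a cell viability assay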
Description: SANGER: Inhibition of human NCI-H1650 cell growth in a cell viability assay.

LC-2-ad = format: functional, cell-based, Homo sapiens; conditions: Homo sapiens, LC-2-ad;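 further: growth inhibition of human LC-2-ad cells, read out with a cell viability assay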
Description: SANGER: Inhibition of human LC-2-ad cell growth in a cell viability assay.

JAR = format: functional, cell-based, Homo sapiens; conditions: Homo sapiens, JAR;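 further: growth inhibition of human JAR cells determined with a cell viability assay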
Description: SANGER: Inhibition of human JAR cell growth in a cell viability assay.

Daoy = format: functional, cell-based, Homo sapiens; conditions: Homo sapiens, Daoy;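 further: daoy cell growth inhibition, read out as cell viability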
Description: SANGER: Inhibition of human Daoy cell growth in a cell viability assay.

RMG-I = format: functional, cell-based, Homo sapiens; conditions: Homo sapiens, RMG-I;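 further: growth inhibition of human RMG-I cells, read out with a cell viability assay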
Description: SANGER: Inhibition of human RMG-I cell growth in a cell viability assay.

GB-1 = format: functional, cell-based, Homo sapiens; conditions: Homo sapiens, GB-1;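 further: growth of GB-1 cells judged by a viability assay, IC50 marks the concentration inhibiting growth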
Description: SANGER: Inhibition of human GB-1 cell growth in a cell viability assay.

UACC-893 = format: functional, cell-based, Homo sapiens; conditions: Homo sapiens, UACC-893
Description: SANGER: Inhibition of human UACC-893 cell growth in a cell viability assay.

MV4-11 = format: functional, cell-based, MV-4-11; conditions: Homo sapiens;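 further: cell viability readout measuring growth inhibition of human MV-4-11 cells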
Description: SANGER: Inhibition of human MV-4-11 cell growth in a cell viability assay.

LoVo = format: functional, cell-based; conditions: Homo sapiens;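 further: growth inhibition of human LoVo cells, read out with a cell viability assay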
Description: SANGER: Inhibition of human LoVo cell growth in a cell viability assay.

MOLT-16 = format: functional, cell-based; conditions: Homo sapiens;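 further: growth inhibition of human MOLT-16 cells, read out with a cell viability assay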
Description: SANGER: Inhibition of human MOLT-16 cell growth in a cell viability assay.

OAW-28 = format: functional, cell-based, Homo sapiens; conditions: Homo sapiens, OAW-28;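 further: growth inhibition of OAW-28 cells, read out with a cell viability assay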
Description: SANGER: Inhibition of human OAW-28 cell growth in a cell viability assay.

GR-ST = format: functional, cell-based; conditions: Homo sapiens
Description: SANGER: Inhibition of human GR-ST cell growth in a cell viability assay.

KG-1 = format: functional, cell-based; conditions: Homo sapiens;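 further: growth inhibition of KG-1 cells, read out by a cell viability assay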
Description: SANGER: Inhibition of human KG-1 cell growth in a cell viability assay.

COLO-320-HSR = format: functional, cell-based; conditions: Homo sapiens;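 further: growth inhibition of COLO-320-HSR cells, determined with a cell viability assay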
Description: SANGER: Inhibition of human COLO-320-HSR cell growth in a cell viability assay.

ES5 = format: functional, cell-based, Homo sapiens; conditions: Homo sapiens, ES5;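 further: growth inhibition of human ES5 cells, read out by a cell viability assay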
Description: SANGER: Inhibition of human ES5 cell growth in a cell viability assay.

TGBC24TKB = format: functional, cell-based, Homo sapiens; conditions: Homo sapiens, TGBC24TKB;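 further: growth inhibition of human TGBC24TKB cells, read out with a cell viability assay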
Description: SANGER: Inhibition of human TGBC24TKB cell growth in a cell viability assay.

NCI-H1092 = format: functional, cell-based; conditions: Homo sapiens;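 further: cell growth inhibition measured with a cell viability assay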
Description: SANGER: Inhibition of human NCI-H1092 cell growth in a cell viability assay.

NCI-H526 = format: functional, cell-based; conditions: Homo sapiens;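 further: growth inhibition of the human NCI-H526 cell line, measured by a cell viability assay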
Description: SANGER: Inhibition of human NCI-H526 cell growth in a cell viability assay.

LB831-BLC = format: functional, cell-based, Homo sapiens; conditions: Homo sapiens, LB831-BLC;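 further: growth inhibition of LB831-BLC cells, read out with a cell viability assay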
Description: SANGER: Inhibition of human LB831-BLC cell growth in a cell viability assay.

KURAMOCHI = format: functional, cell-based; conditions: Homo sapiens;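 further: growth inhibition of KURAMOCHI cells, read out with a cell viability assay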
Description: SANGER: Inhibition of human KURAMOCHI cell growth in a cell viability assay.

GCT = format: functional, cell-based, Homo sapiens; conditions: Homo sapiens, GCT;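 further: GCT cell line proliferation inhibition, read out with a cell viability assay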
Description: SANGER: Inhibition of human GCT cell growth in a cell viability assay.

TE-6 = format: functional, cell-based, Homo sapiens; conditions: Homo sapiens, TE-6;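 further: growth inhibition of TE-6 cells, read out with a cell viability assay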
Description: SANGER: Inhibition of human TE-6 cell growth in a cell viability assay.

KM-H2 = format: functional, cell-based; conditions: Homo sapiens;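 further: growth inhibition of KM-H2 cells, read out by a cell viability assay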
Description: SANGER: Inhibition of human KM-H2 cell growth in a cell viability assay.

SiHa = format: functional, cell-based, Homo sapiens; conditions: Homo sapiens, SiHa;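 further: Viability-based readout of growth inhibition in SiHa cells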
Description: SANGER: Inhibition of human SiHa cell growth in a cell viability assay.

D-247MG = format: functional, cell-based, Homo sapiens; conditions: Homo sapiens, D-247MG
Description: SANGER: Inhibition of human D-247MG cell growth in a cell viability assay.

DJM-1 = format: functional, cell-based, Homo sapiens; conditions: Homo sapiens, DJM-1;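 further: growth inhibition of human DJM-1 cells, read out by a cell viability assay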
Description: SANGER: Inhibition of human DJM-1 cell growth in a cell viability assay.

EGI-1 = format: functional, cell-based, Homo sapiens; conditions: Homo sapiens, EGI-1;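 further: cell viability readout used to gauge growth inhibition of EGI-1 cells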
Description: SANGER: Inhibition of human EGI-1 cell growth in a cell viability assay.

DBTRG-05MG = format: functional, cell-based, Homo sapiens; conditions: Homo sapiens, DBTRG-05MG;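 further: cell viability assay measuring growth inhibition of human DBTRG-05MG cells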
Description: SANGER: Inhibition of human DBTRG-05MG cell growth in a cell viability assay.

SMILES: COc1ccc(-c2ccc3c(N4CCOC[C@@H]4C)nc(N4CCOC[C@@H]4C)nc3n2)cc1CO [AZD-8055]
- IC50 (BT-20): 1220 nM
- IC50 (LN-405): 1280 nM
- IC50 (BB49-HNC): 1750 nM
- IC50 (MSTO-211H): 578 nM
- IC50 (KARPAS-45): 33.7 nM
- IC50 (8305C): 708 nM
- IC50 (NB5): 703 nM
- IC50 (G-402): 99.8 nM
- IC50 (RVH-421): 636 nM
- IC50 (SW-620): > 2000 nM
- IC50 (COLO-792): > 2000 nM
- IC50 (SW 962): 472 nM
- IC50 (NCI-H2342): > 2000 nM
- IC50 (SK-MEL-24): > 2000 nM
- IC50 (SW684): 1970 nM
- IC50 (SCC-15): 1170 nM
- IC50 (SF-126): 887 nM
- IC50 (ETK-1): 894 nM
- IC50 (MC116): > 2000 nM
- IC50 (NB7): > 2000 nM
- IC50 (HuO-3N1): 384 nM
- IC50 (NOMO-1): > 2000 nM
- IC50 (CTB-1): 272 nM
- IC50 (KYSE-410): 1270 nM
- IC50 (NCI-H1650): > 2000 nM
- IC50 (LC-2-ad): 221 nM
- IC50 (JAR): > 2000 nM
- IC50 (Daoy): 1100 nM
- IC50 (RMG-I): > 2000 nM
- IC50 (GB-1): > 2000 nM
- IC50 (UACC-893): 929 nM
- IC50 (MV4-11): 103 nM
- IC50 (LoVo): 202 nM
- IC50 (MOLT-16): 938 nM
- IC50 (OAW-28): > 2000 nM
- IC50 (GR-ST): 530 nM
- IC50 (KG-1): 569 nM
- IC50 (COLO-320-HSR): > 2000 nM
- IC50 (ES5): 93.5 nM
- IC50 (TGBC24TKB): 1860 nM
- IC50 (NCI-H1092): 1130 nM
- IC50 (NCI-H526): > 2000 nM
- IC50 (LB831-BLC): 1390 nM
- IC50 (KURAMOCHI): > 2000 nM
- IC50 (GCT): 1340 nM
- IC50 (TE-6): 1710 nM
- IC50 (KM-H2): 1560 nM
- IC50 (SiHa): > 2000 nM
- IC50 (D-247MG): > 2000 nM
- IC50 (DJM-1): 1620 nM
- IC50 (EGI-1): 135 nM
- IC50 (DBTRG-05MG): > 2000 nM

SMILES: CC(=O)O[C@@]12CO[C@@H]1C[C@H](O)[C@@]1(C)C(=O)[C@H](O)C3=C(C)[C@@H](OC(=O)[C@H](O)[C@@H](NC(=O)OC(C)(C)C)c4ccccc4)C[C@@](O)([C@@H](OC(=O)c4ccccc4)[C@H]21)C3(C)C [DOCETAXEL]
- IC50 (BT-20): 3.76 nM
- IC50 (LN-405): 4.82 nM
- IC50 (BB49-HNC): 2.12 nM
- IC50 (MSTO-211H): > 10 nM
- IC50 (KARPAS-45): 6.52 nM
- IC50 (8305C): 5.76 nM
- IC50 (NB5): > 10 nM
- IC50 (G-402): 0.706 nM
- IC50 (RVH-421): 4.61 nM
- IC50 (SW-620): 3.97 nM
- IC50 (COLO-792): > 10 nM
- IC50 (SW 962): 2.93 nM
- IC50 (NCI-H2342): > 10 nM
- IC50 (SK-MEL-24): > 10 nM
- IC50 (SW684): > 10 nM
- IC50 (SCC-15): 6.89 nM
- IC50 (SF-126): 3.29 nM
- IC50 (ETK-1): 0.558 nM
- IC50 (MC116): > 10 nM
- IC50 (NB7): > 10 nM
- IC50 (HuO-3N1): 0.302 nM
- IC50 (NOMO-1): 5.13 nM
- IC50 (CTB-1): 1.92 nM
- IC50 (KYSE-410): 1.24 nM
- IC50 (NCI-H1650): > 10 nM
- IC50 (LC-2-ad): 3.4 nM
- IC50 (JAR): 4.37 nM
- IC50 (Daoy): 0.7 nM
- IC50 (RMG-I): > 10 nM
- IC50 (GB-1): 5.11 nM
- IC50 (UACC-893): > 10 nM
- IC50 (MV4-11): 1.74 nM
- IC50 (LoVo): > 10 nM
- IC50 (MOLT-16): 8.27 nM
- IC50 (OAW-28): > 10 nM
- IC50 (GR-ST): > 10 nM
- IC50 (KG-1): > 10 nM
- IC50 (COLO-320-HSR): > 10 nM
- IC50 (ES5): 0.91 nM
- IC50 (TGBC24TKB): 7.81 nM
- IC50 (NCI-H1092): > 10 nM
- IC50 (NCI-H526): 1.76 nM
- IC50 (LB831-BLC): 1.48 nM
- IC50 (KURAMOCHI): > 10 nM
- IC50 (GCT): 1.8 nM
- IC50 (TE-6): > 10 nM
- IC50 (KM-H2): > 10 nM
- IC50 (SiHa): 4.3 nM
- IC50 (D-247MG): 1.73 nM
- IC50 (DJM-1): > 10 nM
- IC50 (EGI-1): 3.62 nM
- IC50 (DBTRG-05MG): 9.17 nM
